Data on 10 compounds can be found in ChEMBL document CHEMBL1201862, “PubChem BioAssay data set” (2004).

Structures are written as SMILES.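 Method: 48-hour compound exposure of cells in 96-well plates, five concentrations, linear interpolation of endpoints. Here, GI50 denotes the concentration required for 50% inhibition of growth.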 Calls of active or inactive are those of the source. Cut-off read from the data, not from the text of the source: active = GI50 up to about 1.1 µM and inactive = higher. Non-standard residues stand in square brackets, D forms with d. Residues, ends and D or L forms follow the SMILES beside them. ξ: configuration not given here. *: point of attachment. Cbz = O=C(OCc1ccccc1)*; ξK = NCCCCC(N)C(=O)O

Test systems include NCI/ADR-RES; MOLT-4; SNB-19; A549; IGROV-1; HCC 2998; SK-MEL-2; ACHN; NCI-H226; A498; COLO 205; RXF 393; OVCAR-3; RPMI-8226; CAKI-1; SNB-75; 786-0; PC-3; OVCAR-4; MCF7.
Experiment in all cases: growth of human tumour cells (NCI), 48 h

For the compound `O=C1C(c2c(O)[nH]c3ccc(Br)cc23)=Nc2ccccc21`, the GI50 in the test with NCI/ADR-RES is 17.7 µM (inactive); in the test with MOLT-4, 18.2 µM (inactive); with SNB-19, 13.2 µM (inactive); with A549, 4.07 µM (inactive); with IGROV-1, 0.562 µM (active); with HCC 2998 it was 3.79 µM (inactive). Besides, the GI50 in the test with SK-MEL-2 is 11.9 µM (inactive); in the test with ACHN, 3.06 µM (inactive); in the test with NCI-H226, 15.1 µM (inactive); with A498, 3.3 µM (inactive); with COLO 205, 5.65 µM (inactive); in the test with RXF 393, 2.39 µM (inactive). Also, the GI50 with OVCAR-3 was 10.6 µM (inactive); in the test with RPMI-8226 it was 8.79 µM (inactive); in the test on CAKI-1, 2.65 µM (inactive); in the test on SNB-75, 11.2 µM (inactive); in the test with 786-0, 2.13 µM (inactive); in the test on PC-3 it was 5 µM (inactive). The GI50 in the test on OVCAR-4 was 9.04 µM (inactive); with MCF7 it was 1.76 µM (inactive).

Consider `CC[C@@]1(OP(=O)(O)O)C(=O)OCc2c1cc1n(c2=O)Cc2cc3ccccc3nc2-1`, for which the GI50 was 0.0718 µM (active) with NCI/ADR-RES; 0.014 µM (active) in the test with MOLT-4; 0.0798 µM (active) with SNB-19; 0.143 µM (active) in the test on A549; 0.311 µM (active) in the test on IGROV-1; 0.771 µM (active) with HCC 2998. Besides, the GI50 in the test with SK-MEL-2 was 2.94 µM (inactive); in the test with ACHN, 0.0405 µM (active); with NCI-H226, 0.179 µM (active); in the test on A498 it was 0.0817 µM (active); in the test on COLO 205, 0.847 µM (active); with RXF 393, 0.454 µM (active). Also, the GI50 is 2.73 µM (inactive) in the test on OVCAR-3; 0.0718 µM (active) in the test on RPMI-8226; 0.0467 µM (active) in the test on CAKI-1; 0.16 µM (active) in the test with SNB-75; 0.0607 µM (active) with 786-0; 0.32 µM (active) in the test with PC-3. Moreover, the GI50 is 1.76 µM (inactive) with OVCAR-4 and 0.0358 µM (active) with MCF7.

With `COc1ccc(C(=O)C#Cc2cnc(OC)nc2OC)cc1`, the GI50 in the test with NCI/ADR-RES is 1.82 µM (inactive); with MOLT-4, 0.0531 µM (active); in the test with SNB-19, 12.2 µM (inactive); with A549 it was 4.17 µM (inactive); in the test on IGROV-1 it was 1.45 µM (inactive); with HCC 2998 it was 1.84 µM (inactive). Moreover, the GI50 with SK-MEL-2 is 1.42 µM (inactive); in the test on ACHN, 1.5 µM (inactive); in the test on NCI-H226, 1.47 µM (inactive); in the test on A498 it was 18.7 µM (inactive); in the test with COLO 205, 1.57 µM (inactive); with RXF 393 it was 1.87 µM (inactive). In addition, the GI50 with OVCAR-3 is 1.68 µM (inactive); with RPMI-8226, 1.93 µM (inactive); with CAKI-1, 1.19 µM (inactive); with SNB-75, 2.22 µM (inactive); in the test with 786-0, 1.94 µM (inactive); in the test on PC-3, 1.26 µM (inactive). Further, the GI50 in the test on OVCAR-4 was 6.5 µM (inactive); with MCF7, 0.778 µM (active).

On to `O=C1C([P+](c2ccccc2)(c2ccccc2)c2ccccc2)=C([O-])C(=Cc2ccc(Cl)c(Cl)c2)C([O-])=C1[P+](c1ccccc1)(c1ccccc1)c1ccccc1`, for which the GI50 was 8.71 µM (inactive) with NCI/ADR-RES; 0.421 µM (active) with MOLT-4; 3.16 µM (inactive) in the test with SNB-19; 2.62 µM (inactive) in the test with A549; 2.62 µM (inactive) in the test on IGROV-1; 2.93 µM (inactive) with HCC 2998. In addition, the GI50 is 2.44 µM (inactive) in the test on SK-MEL-2; 2.8 µM (inactive) with ACHN; 3.44 µM (inactive) in the test with NCI-H226; 15.1 µM (inactive) in the test with A498; 1.73 µM (inactive) with COLO 205; 1.71 µM (inactive) in the test with RXF 393. The GI50 with OVCAR-3 is 1.99 µM (inactive); in the test on RPMI-8226 it was 1.22 µM (inactive); in the test with CAKI-1, 2.18 µM (inactive); in the test with SNB-75 it was 4.02 µM (inactive); in the test with 786-0, 2.14 µM (inactive); in the test with PC-3, 1.71 µM (inactive). Also, the GI50 in the test with OVCAR-4 was 2.97 µM (inactive); in the test on MCF7, 1.46 µM (inactive).

With `COC(=O)NNC(=O)OC.COC(=O)Nc1ccccc1NC(=O)OC.COC(=O)Oc1nn(C(=O)OC)c(=O)c2ccccc12`, the GI50 in the test with NCI/ADR-RES, with MOLT-4, with SNB-19, in the test with A549, with IGROV-1 and in the test with HCC 2998 was > 100 µM (inactive) throughout. The GI50 in the test with SK-MEL-2 is > 100 µM (inactive); with ACHN it was > 100 µM (inactive); in the test on NCI-H226, > 100 µM (inactive); in the test with A498, 39.1 µM (inactive); with COLO 205, > 100 µM (inactive); in the test with RXF 393, > 100 µM (inactive). Besides, the GI50 with OVCAR-3, in the test on RPMI-8226, in the test on CAKI-1, in the test with SNB-75, with 786-0 and in the test on PC-3 was > 100 µM (inactive) throughout. Also, the GI50 in the test on OVCAR-4 and in the test on MCF7 was > 100 µM (inactive) throughout.

Consider `C=Cc1ccccc1C1C(C(=O)OCC)=C(C)N=C2OC(C(=O)OC)C(=O)N21` (stereo not given), for which the GI50 in the test with NCI/ADR-RES, with MOLT-4, in the test on SNB-19, with A549, in the test with IGROV-1 and in the test on HCC 2998 was > 100 µM (inactive) throughout. The GI50 in the test with SK-MEL-2, with ACHN, in the test with NCI-H226, in the test on A498, with COLO 205 and in the test on RXF 393 was > 100 µM (inactive) throughout. The GI50 in the test on OVCAR-3, with RPMI-8226, with CAKI-1, in the test on SNB-75, in the test on 786-0 and in the test on PC-3 was > 100 µM (inactive) each time. In addition, the GI50 in the test on OVCAR-4 and with MCF7 was > 100 µM (inactive) in each case.

For the compound `N#CC(C#N)=C1CCCCc2ccc([N+](=O)[O-])cc21`, the GI50 was > 100 µM (inactive) with NCI/ADR-RES; 41.8 µM (inactive) in the test with MOLT-4; > 100 µM (inactive) in the test on SNB-19; > 100 µM (inactive) with A549; > 100 µM (inactive) in the test with IGROV-1; > 100 µM (inactive) with HCC 2998. The GI50 is > 100 µM (inactive) with SK-MEL-2; 93.5 µM (inactive) with ACHN; > 100 µM (inactive) in the test on NCI-H226; 78.3 µM (inactive) in the test with A498; > 100 µM (inactive) in the test on COLO 205; 40.6 µM (inactive) with RXF 393. The GI50 was 15.7 µM (inactive) with OVCAR-3; 31.2 µM (inactive) in the test on RPMI-8226; 95.7 µM (inactive) in the test on CAKI-1; > 100 µM (inactive) in the test on SNB-75; 17.4 µM (inactive) with 786-0; 55.3 µM (inactive) in the test on PC-3. The GI50 was > 100 µM (inactive) with OVCAR-4 and 38.7 µM (inactive) in the test with MCF7.

`CCCCCc1cc2cc3c(c(O)c2c(=O)[nH]1)C1(CCC3)C(=O)c2c(O)ccc(O)c2C1=O`: the GI50 in the test with NCI/ADR-RES was 99.5 µM (inactive); in the test on MOLT-4, > 100 µM (inactive); in the test with SNB-19 it was > 100 µM (inactive); in the test with A549 it was > 100 µM (inactive); in the test on IGROV-1, > 100 µM (inactive); with HCC 2998, > 100 µM (inactive). Further, the GI50 in the test with SK-MEL-2 is 66.7 µM (inactive); with ACHN it was > 100 µM (inactive); with NCI-H226, > 100 µM (inactive); in the test with A498, > 100 µM (inactive); with COLO 205 it was > 100 µM (inactive); with RXF 393 it was 43 µM (inactive). Besides, the GI50 with OVCAR-3 is > 100 µM (inactive); with RPMI-8226, > 100 µM (inactive); in the test with CAKI-1, > 100 µM (inactive); in the test with SNB-75 it was 58.2 µM (inactive); in the test on 786-0, > 100 µM (inactive); in the test with PC-3 it was > 100 µM (inactive). Moreover, the GI50 in the test on OVCAR-4 is 88.5 µM (inactive); with MCF7 it was > 100 µM (inactive).

On to `CCC1(OC(=O)CN2CCN(CCO)CC2)C(=O)OCc2c1cc1n(c2=O)Cc2cc3ccccc3nc2-1` (stereo not given), for which the GI50 is 0.11 µM (active) in the test with NCI/ADR-RES; 0.034 µM (active) in the test on MOLT-4; 0.216 µM (active) in the test on SNB-19; 0.307 µM (active) with A549; 0.778 µM (active) with IGROV-1; 0.45 µM (active) with HCC 2998. Further, the GI50 in the test on SK-MEL-2 was 4.25 µM (inactive); in the test with ACHN, 0.0667 µM (active); in the test on NCI-H226, 0.329 µM (active); in the test on A498, 0.514 µM (active); with COLO 205, 2.04 µM (inactive); with RXF 393, 0.593 µM (active). Further, the GI50 with OVCAR-3 is 1.96 µM (inactive); in the test with RPMI-8226, 0.962 µM (active); with CAKI-1 it was 0.047 µM (active); with SNB-75, 0.234 µM (active); with 786-0, 0.13 µM (active); in the test with PC-3 it was 0.405 µM (active). The GI50 in the test with OVCAR-4 was 1.77 µM (inactive); in the test on MCF7, 0.107 µM (active).

On to `NCCCCC(NC(=O)OCc1ccccc1)C(=O)NCC(N)=O` (stereo not given) (Cbz-[ξK]-Gly-NH2), for which the GI50 in the test on NCI/ADR-RES, in the test on MOLT-4, in the test with SNB-19, in the test with A549, in the test with IGROV-1 and with HCC 2998 was > 100 µM (inactive) each time. Further, the GI50 with SK-MEL-2, in the test on ACHN, in the test on NCI-H226, in the test on A498, in the test on COLO 205 and in the test with RXF 393 was > 100 µM (inactive) each time. Further, the GI50 in the test with OVCAR-3, in the test on RPMI-8226, with CAKI-1, in the test on SNB-75, in the test with 786-0 and in the test on PC-3 was > 100 µM (inactive) throughout. For the same compound, the GI50 in the test on OVCAR-4 and in the test with MCF7 was > 100 µM (inactive) each time.
